Measured values taken from ChEMBL document CHEMBL1201862, “PubChem BioAssay data set” (2004).
Activity calls are given as the source filed them.

Tests used:
[1] = target: T1, Leucine aminopeptidase (Plasmodium falciparum 3D7, UniProt Q8IL11); test: P. falciparum M17LAP inhibitors, primary screen, biochemical, fluorogenic H-Leu-NHMec substrate, 1536-well (AID 1619); format: functional
T1 sequence (Q8IL11 whole entry): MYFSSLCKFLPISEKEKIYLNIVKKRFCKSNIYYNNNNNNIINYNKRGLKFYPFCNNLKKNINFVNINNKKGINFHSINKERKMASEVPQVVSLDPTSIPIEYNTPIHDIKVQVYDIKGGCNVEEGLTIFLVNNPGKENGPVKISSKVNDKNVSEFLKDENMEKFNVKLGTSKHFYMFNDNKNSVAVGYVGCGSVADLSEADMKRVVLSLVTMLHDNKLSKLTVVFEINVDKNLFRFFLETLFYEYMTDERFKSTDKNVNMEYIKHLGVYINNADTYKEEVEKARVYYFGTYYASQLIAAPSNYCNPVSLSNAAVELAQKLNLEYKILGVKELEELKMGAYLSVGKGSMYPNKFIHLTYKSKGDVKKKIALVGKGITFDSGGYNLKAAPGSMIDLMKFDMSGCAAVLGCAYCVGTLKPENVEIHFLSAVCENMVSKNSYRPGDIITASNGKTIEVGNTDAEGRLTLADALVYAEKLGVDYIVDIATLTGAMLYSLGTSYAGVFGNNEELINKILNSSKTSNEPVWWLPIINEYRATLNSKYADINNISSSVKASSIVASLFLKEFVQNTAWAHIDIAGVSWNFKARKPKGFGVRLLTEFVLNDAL

[2] = Counterscreen for IDE inhibitors: Luminescence-based cell-based high throughput dose response assay to identify compounds that are cytotoxic to HEK cells. [Related pubchem assays: 434962 (Primary screen (IDE inhibitors in singlicate)), 449730 (Counterscreen (Cytotoxicity in triplicate)), 435028 (Confirmation (IDE inhibitors in triplicate)) …; format: functional; conditions: HEK293
[3] = target: Insulin-degrading enzyme (Homo sapiens, UniProt P14735); test: Dose Response: Fluorescence polarization-based cell-based high throughput dose response assay for inhibitors of insulin-degrading enzyme (IDE). [Related pubchem assays: 434962 (Primary screen (IDE inhibitors in singlicate)), 449730 (Counterscreen (Cytotoxicity in triplicate)), 435028 (Confirmation (IDE inhibitors in triplicate)), 434984 (Summary …; format: functional
Chain of Insulin-degrading enzyme (P14735 whole entry): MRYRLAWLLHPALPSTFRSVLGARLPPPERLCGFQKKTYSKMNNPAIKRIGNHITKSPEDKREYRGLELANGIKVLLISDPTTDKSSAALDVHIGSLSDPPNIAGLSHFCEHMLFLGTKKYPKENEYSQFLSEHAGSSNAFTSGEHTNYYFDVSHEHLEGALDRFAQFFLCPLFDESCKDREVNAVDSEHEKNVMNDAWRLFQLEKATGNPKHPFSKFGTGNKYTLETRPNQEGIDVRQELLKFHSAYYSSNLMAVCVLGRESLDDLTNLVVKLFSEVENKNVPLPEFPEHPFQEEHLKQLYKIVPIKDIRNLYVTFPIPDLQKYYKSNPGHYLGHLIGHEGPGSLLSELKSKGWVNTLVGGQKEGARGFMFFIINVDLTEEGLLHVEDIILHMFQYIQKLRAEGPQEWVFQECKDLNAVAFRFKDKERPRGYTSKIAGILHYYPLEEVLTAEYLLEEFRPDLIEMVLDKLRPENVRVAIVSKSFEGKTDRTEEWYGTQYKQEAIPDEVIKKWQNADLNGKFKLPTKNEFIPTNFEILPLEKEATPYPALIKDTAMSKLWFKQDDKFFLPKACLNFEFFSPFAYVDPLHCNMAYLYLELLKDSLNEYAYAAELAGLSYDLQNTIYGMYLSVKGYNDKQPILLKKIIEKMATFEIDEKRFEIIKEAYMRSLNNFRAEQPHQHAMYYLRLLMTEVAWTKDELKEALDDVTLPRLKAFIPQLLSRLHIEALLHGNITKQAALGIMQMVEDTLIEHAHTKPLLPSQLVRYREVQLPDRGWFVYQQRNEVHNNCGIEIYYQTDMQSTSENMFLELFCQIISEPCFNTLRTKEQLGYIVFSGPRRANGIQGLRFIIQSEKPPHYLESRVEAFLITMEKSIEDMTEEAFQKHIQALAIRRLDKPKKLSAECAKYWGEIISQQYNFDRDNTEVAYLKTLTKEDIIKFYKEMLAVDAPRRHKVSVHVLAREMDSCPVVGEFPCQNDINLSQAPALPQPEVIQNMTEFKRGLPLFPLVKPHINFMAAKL

[4] = NIH-3T3 fibroblast cytotoxicity, dose response, cytotoxicity control, cell-based, fluorescence, Alamar Blue, secondary assay (AID 2327); format: functional;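 further: NIH-3T3 mouse fibroblasts cultured with fluconazole at 8 µg/mL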
[5] = cells; format: functional, cell-based
[6] = C. albicans growth with fluconazole, confirmation, fluorescence, retest (AID 2467); format: functional, cell-based
[7] = target: T2, Mannose-6-phosphate isomerase (Homo sapiens, UniProt P34949); test: inhibitors of human PMI, primary screen, biochemical, fluorescence intensity, coupled assay (AID 1209)
T2 sequence (P34949 whole entry): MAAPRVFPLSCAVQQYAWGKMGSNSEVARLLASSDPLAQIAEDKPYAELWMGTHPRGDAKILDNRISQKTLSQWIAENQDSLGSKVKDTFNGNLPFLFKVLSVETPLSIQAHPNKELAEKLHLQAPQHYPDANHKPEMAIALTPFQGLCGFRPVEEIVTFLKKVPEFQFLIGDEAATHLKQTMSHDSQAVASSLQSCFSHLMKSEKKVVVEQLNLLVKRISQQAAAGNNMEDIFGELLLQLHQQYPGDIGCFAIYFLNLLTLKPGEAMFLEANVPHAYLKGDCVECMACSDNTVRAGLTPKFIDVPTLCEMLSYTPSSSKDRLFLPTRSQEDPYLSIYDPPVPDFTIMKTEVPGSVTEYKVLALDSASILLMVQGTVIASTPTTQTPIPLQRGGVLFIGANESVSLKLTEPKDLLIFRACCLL

[8] = cells; format: functional, cell-based; remark: listed apart in the source
[9] = target: T3, Serine/threonine-protein phosphatase (Candida dubliniensis (strain CD36 / CBS 7987 / NCPF 3949 / NRRLY-17841) (Yeast), UniProt B9W6M3); test: calcineurin pathway inhibitors in yeast reporter, dose response, S. cerevisiae, CDRE-lacZ, luminescence, secondary (AID 2388); format: functional, cell-based;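 further: yeast reporter cells carrying a calcineurin-responsive lacZ construct stimulated with calcium chloride; luminescent beta-galactosidase reporter signal in whole cells rather than isolated phosphatase activity; potency for inhibition where a drop in reporter signal means calcineurin blockade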
T3 sequence (B9W6M3 whole entry): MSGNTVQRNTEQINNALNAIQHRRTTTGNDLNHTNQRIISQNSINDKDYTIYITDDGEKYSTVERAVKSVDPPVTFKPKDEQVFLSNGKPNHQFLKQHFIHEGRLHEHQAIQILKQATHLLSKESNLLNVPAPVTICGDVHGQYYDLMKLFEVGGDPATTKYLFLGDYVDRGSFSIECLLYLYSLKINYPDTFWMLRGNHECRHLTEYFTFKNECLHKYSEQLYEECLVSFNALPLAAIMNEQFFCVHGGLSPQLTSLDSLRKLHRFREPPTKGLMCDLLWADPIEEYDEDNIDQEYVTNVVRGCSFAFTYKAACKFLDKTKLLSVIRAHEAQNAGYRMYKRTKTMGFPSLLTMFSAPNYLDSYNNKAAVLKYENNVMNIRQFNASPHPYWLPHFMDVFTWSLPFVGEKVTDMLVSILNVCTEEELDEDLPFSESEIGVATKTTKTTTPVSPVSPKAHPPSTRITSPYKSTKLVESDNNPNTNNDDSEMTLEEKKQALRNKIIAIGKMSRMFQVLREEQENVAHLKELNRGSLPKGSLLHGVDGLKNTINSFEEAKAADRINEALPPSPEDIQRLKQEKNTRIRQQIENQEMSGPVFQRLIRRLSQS

[10] = enhancers of respiration in Yfh1-depleted yeast, dose response, Friedreich's ataxia, plus single-dose screen (AID 1465); format: functional;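 further: yeast depleted of Yfh1p frataxin homolog grown on glycerol needing respiration; WST-1 tetrazolium dye reduction as measure of cellular dehydrogenase metabolic activity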
[11] = target: Induced myeloid leukemia cell differentiation protein Mcl-1 (Homo sapiens, UniProt Q07820); format: functional
Chain of Induced myeloid leukemia cell differentiation protein Mcl-1 (Q07820 whole entry): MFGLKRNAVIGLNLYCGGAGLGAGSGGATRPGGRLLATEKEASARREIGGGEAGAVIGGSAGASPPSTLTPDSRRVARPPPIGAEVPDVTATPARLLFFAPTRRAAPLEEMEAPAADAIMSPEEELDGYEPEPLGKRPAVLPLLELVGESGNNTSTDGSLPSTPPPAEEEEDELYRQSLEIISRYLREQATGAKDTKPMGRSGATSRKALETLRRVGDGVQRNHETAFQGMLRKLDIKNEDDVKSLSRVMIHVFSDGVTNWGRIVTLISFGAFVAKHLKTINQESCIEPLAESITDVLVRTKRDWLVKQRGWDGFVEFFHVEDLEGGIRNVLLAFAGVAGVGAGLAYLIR

[12] = target: T2, Mannose-6-phosphate isomerase; test: human PMI inhibitors, high substrate, primary screen, biochemical, fluorescence intensity, high mannose 6-phosphate (AID 1220)
[13] = target: T4, Coagulation factor XII (Homo sapiens, UniProt P00748); format: functional;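 further: activated factor XIIa alpha cleaving a fluorogenic AMC peptide substrate; inhibitor potency from loss of enzyme activity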
T4 sequence (P00748 whole entry): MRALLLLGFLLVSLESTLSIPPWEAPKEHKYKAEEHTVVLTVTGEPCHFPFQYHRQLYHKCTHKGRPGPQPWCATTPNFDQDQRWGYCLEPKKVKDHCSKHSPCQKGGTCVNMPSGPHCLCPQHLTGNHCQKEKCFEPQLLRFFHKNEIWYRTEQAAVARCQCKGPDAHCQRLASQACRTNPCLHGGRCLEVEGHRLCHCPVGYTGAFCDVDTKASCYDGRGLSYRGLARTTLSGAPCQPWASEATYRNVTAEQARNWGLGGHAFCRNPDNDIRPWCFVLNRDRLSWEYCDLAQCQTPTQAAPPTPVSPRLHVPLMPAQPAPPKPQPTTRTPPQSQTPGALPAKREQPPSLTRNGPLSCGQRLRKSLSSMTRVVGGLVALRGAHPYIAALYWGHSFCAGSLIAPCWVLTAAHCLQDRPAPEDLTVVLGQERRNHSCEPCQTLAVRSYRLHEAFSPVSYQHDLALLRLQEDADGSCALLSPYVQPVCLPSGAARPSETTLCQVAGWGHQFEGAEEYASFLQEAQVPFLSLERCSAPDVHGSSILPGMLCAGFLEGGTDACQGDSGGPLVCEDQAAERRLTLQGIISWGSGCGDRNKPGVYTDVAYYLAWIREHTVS

[14] = target: ATP-dependent molecular chaperone HSP82 (Candida albicans (strain WO-1) (Yeast), UniProt C4YTQ8); test: loss of DOC-induced GRE-beta-galactosidase reporter signal, dose response, Hsp90 inhibitor project, S. cerevisiae, luminescence (AID 2400); format: functional, cell-based;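 further: beta-galactosidase luminescence from glucocorticoid response element reporter as proxy for Hsp90 function; inhibitor potency where signal loss means Hsp90 inhibition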
Chain of ATP-dependent molecular chaperone HSP82 (C4YTQ8 whole entry): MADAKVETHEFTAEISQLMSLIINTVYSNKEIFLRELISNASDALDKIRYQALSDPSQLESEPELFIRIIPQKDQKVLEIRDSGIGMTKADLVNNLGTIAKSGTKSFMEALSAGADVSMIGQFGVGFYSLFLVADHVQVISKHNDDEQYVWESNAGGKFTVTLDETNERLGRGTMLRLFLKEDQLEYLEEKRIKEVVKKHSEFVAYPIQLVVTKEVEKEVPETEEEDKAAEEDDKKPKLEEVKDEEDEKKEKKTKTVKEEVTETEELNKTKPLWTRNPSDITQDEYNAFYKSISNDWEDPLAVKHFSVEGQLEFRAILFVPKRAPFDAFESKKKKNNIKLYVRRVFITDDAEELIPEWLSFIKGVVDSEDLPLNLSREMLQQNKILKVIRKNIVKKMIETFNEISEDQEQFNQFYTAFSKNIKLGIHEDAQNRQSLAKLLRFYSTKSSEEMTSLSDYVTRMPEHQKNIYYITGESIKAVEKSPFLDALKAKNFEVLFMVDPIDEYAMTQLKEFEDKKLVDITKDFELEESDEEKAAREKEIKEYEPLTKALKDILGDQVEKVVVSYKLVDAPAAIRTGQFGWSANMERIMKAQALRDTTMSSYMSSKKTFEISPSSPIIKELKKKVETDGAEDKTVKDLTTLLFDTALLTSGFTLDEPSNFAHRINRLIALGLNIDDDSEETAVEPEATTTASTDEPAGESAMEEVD

[15] = Luminescence Cell-Based Dose Response to Identify Activators of 5'UTR Stem-Loop Driven Prion Protein mRNA Translation in H4-C Neuroglioblastoma Cells. [Related pubchem assays: 1829 (Project Summary), 1814 (Primary HTS)]; format: functional
[16] = tested on: H4; test: Luminescence Cell-Based Dose Response HTS to Identify Activators of 5'UTR Stem-Loop Driven Prion Protein mRNA Translation in H4 Neuroglioblastoma Cells. [Related pubchem assays: 1829 (Project Summary), 1814 (Primary HTS)]; format: functional; conditions: Homo sapiens
[17] = target: T5, Heat shock factor protein 1 (Mus musculus, UniProt P38532); test: inhibition of MG132-induced HSE-luciferase signal, confirmation, cell-based, NIH3T3, luminescence, dose retest (AID 2382); format: functional;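 further: NIH3T3 fibroblasts with HSF1-driven luciferase reporter stressed by proteasome inhibitor MG132; luminescence from HSF1-driven luciferase expression after 8 hours of MG132 stress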
T5 sequence (P38532 whole entry): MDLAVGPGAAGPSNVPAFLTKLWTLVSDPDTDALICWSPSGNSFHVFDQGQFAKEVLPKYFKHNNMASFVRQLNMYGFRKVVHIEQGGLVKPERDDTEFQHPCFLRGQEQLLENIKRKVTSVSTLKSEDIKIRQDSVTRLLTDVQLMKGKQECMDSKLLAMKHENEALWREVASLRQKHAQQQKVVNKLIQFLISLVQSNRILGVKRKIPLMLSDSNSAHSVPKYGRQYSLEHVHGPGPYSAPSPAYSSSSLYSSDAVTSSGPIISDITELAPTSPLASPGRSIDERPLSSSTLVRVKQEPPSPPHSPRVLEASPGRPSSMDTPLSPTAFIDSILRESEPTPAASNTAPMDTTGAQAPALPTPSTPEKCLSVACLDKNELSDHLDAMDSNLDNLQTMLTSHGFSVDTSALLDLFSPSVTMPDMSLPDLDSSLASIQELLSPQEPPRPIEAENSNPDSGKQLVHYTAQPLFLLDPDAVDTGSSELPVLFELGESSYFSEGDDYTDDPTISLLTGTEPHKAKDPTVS

[18] = Luminescence Cell-Based Dose Response to Identify Activators of Luciferase Translation or Activity in H4-C Neuroglioblastoma Cells. [Related pubchem assays: 1829 (Project Summary), 1814 (Primary HTS)]; format: functional
[19] = target: Oxytocin receptor (Homo sapiens, UniProt P30559); test: Counterscreen for vasopressin 1 receptor (V1R) agonists: Fluorescence-based cell-based high throughput dose response assay for agonists of the Oxytocin Receptor (OXTR). [Related pubchem assays: 2435 (Primary screen (OXTR agonists in singlicate)), 434964 (Confirmation screen (V1R agonists in triplicate)), 434969 (Counterscreen (OXTR agonists in …; format: functional
Chain of Oxytocin receptor (P30559 whole entry): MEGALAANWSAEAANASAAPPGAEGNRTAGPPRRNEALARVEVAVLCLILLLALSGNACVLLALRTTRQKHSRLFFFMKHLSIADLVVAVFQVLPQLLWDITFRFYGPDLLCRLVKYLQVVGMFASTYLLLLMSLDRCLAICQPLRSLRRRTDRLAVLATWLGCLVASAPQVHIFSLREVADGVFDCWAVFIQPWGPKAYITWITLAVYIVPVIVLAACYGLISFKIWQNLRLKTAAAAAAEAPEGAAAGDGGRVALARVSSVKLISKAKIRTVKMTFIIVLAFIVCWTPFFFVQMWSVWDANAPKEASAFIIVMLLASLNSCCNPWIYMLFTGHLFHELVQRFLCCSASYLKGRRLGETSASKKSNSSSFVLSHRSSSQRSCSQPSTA

[20] = target: Vasopressin V1a receptor (Homo sapiens, UniProt P37288); test: Fluorescence-based cell-based high throughput dose response screening assay for agonists of the vasopressin 1 receptor (V1R).; format: functional
Chain of Vasopressin V1a receptor (P37288 whole entry): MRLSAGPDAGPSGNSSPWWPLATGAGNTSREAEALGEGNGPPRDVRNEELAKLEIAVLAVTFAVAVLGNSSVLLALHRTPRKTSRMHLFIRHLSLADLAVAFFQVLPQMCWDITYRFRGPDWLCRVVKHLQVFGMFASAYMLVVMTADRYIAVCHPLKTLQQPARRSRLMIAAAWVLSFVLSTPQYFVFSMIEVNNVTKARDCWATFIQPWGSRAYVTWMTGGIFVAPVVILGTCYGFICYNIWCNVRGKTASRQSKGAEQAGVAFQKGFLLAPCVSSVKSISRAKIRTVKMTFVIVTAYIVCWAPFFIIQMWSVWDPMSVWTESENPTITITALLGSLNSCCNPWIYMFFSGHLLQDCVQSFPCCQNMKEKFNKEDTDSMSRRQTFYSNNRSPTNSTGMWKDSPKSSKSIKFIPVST

[21] = Luminescence Cell-Based Dose Confirmation to Identify Activators of 5'UTR Stem-Loop Driven Alpha-Synuclein mRNA Translation in H4 Neuroglioblastoma Cells. [Related pubchem assays: 1829 (Project Summary), 1814 (Primary HTS)]; format: functional
[22] = tested on: Vero; test: cytotoxicity of synthesized analogs in Vero cells, SAR follow-up, cytotoxicity control for West Nile virus antiviral project, cell-based, set II (AID 2402); format: functional; conditions: Chlorocebus sabaeus
[23] = A Cell Based Assay for the Identification of Probe candidate Compounds with Anti- Venezuelan Equine Encephalitis virus. [Related pubchem assays: 2409, 2419, 1621, 2238, 2405, 2024, 2065, 2402, 2414, 1635, 1650, 2244 ]; format: functional

O=C(O)CC12CC3CC(C1)CC(n1ncc(NCc4ccc(F)cc4Cl)c(Cl)c1=O)(C3)C2
IC50 [1]: 32.1 µM (active)
IC50 [2]: > 55.7 µM (not active)
IC50 [3]: 18.1 µM (not active)

O=C(N/N=C/c1ccc(O)c(O)c1O)/C(=C/c1ccc([N+](=O)[O-])cc1)NC(=O)c1ccccc1
EC50 [4]: > 160 µM (inactive)
EC50 [5]: > 350 µM (not active)
EC50 [6]: 0.587 µM (active)
IC50 [7]: > 50 µM (not active)
EC50 [8]: > 350 µM (not active)
EC50 [9]: > 180 µM (inactive)
EC50 [10]: > 100 µM (active)
IC50 [11]: 19.3 µM (active)
IC50 [12]: > 50 µM (not active)
IC50 [13]: > 50 µM (inactive)
EC50 [14]: > 160 µM (inactive)

CCN1C(=S)SC(=O)C1=C1C=C(C)N(Cc2ccco2)C(C)=C1
EC50 [15]: 0.313 µM (active)
EC50 [16]: < 0.1 µM (active)
EC50 [17]: > 195 µM (not active)
EC50 [18]: 0.263 µM (active)
EC50 [19]: 16.7 µM (not active)
EC50 [20]: 10.5 µM (not active)
EC50 [21]: 0.287 µM (active)

COc1ccc(Cn2nc(C)cc2OC(=O)c2ccccc2)cc1
CC50 [22]: > 200 µM (active)
IC50 [23]: > 133 µM (active)
